Data set [1] is described as follows: Oral half-life and peak plasma levels. It is filed as in vivo. From the text: As used herein, bioavailability refers to the rate and extent of absorption. Methods for determining bioavailability are well known to those of skill in the art. For example, bioavailability of any of the compounds described herein can be determined empirically by administration of the compound to an animal, followed by taking blood samples over time and measuring the blood concentration of the compound. In vivo half life (t1/2) is defined as the time it takes for the concentration of the compound in the blood to be reduced by one-half. Estimations of the area under the curve for intravenous administration can be used to estimate the area under the curve for oral administration, ylelding bioavailability data. See, e.g., Milo Gibal (1991) Biopharmaceutics and Pharmacology, 4th edition (Lea and Sediger).
Table 2 lists oral half-life, bioavailability, and in vivo activity of selected exemplary compounds. The in vivo activity was measured in a pulmonary hypertension model and is a measure of the activity of the compounds at selected dosages.

A further data set has as its system hypertensive rat model. In words: Deoxycorticosterone acetate (DOCA)-salt hypertensive rat model. It is filed as in vivo. How it is done: Selected compounds disclosed herein have been tested for activity in the deoxycorticosterone acetate (DOCA)-salt hypertensive rat model. To perform these tests, silastic MDX4-4210 elastomer implants containing 47 mg (DOCA) were prepared according to the method of Ornmsbee et al. ((1973) the J. Pharm. Sci. 62:255-257). Briefly, DOCA is incorporated into silicon rubber implants for sustained release. To prepare the implants the DOCA is incorporated into unpolymerized silicone rubber, catalyst is added and the mixture is cast in a hemicylindrical shape.
Sprague Dawley rats (7-8 weeks old) were unilaterally nephrectomized under ketamine anesthesia and a DOCA-implant was placed on the left lateral dorsal abdomen of the animal. The rats were allowed to recover for three weeks. During recovery they were permitted free access to normal rat chow and 0.9% NaCl drinking solution in place of drinking water. The rats develop hypertension within 3 weeks. […]
On the day of experimentation, catheters were inserted under brevital anesthesia into the right femoral artery for measurement of blood pressure, and into the right femoral vein for administration of a selected compound. The animals were placed in a restrainer and allowed to recover for a minimum of 60 min or until a steady mean arterial blood pressure was recorded. […] Blood pressure was recorded continuously for a further 10 hrs.

In another data set the target is T1, human ETA receptors (Homo sapiens, UniProt P25101).
T1 construct: endogenous in cells; host or cells: TE 671 cells (ATCC HTB 139), membrane preparation
T1 sequence (P25101 21-427): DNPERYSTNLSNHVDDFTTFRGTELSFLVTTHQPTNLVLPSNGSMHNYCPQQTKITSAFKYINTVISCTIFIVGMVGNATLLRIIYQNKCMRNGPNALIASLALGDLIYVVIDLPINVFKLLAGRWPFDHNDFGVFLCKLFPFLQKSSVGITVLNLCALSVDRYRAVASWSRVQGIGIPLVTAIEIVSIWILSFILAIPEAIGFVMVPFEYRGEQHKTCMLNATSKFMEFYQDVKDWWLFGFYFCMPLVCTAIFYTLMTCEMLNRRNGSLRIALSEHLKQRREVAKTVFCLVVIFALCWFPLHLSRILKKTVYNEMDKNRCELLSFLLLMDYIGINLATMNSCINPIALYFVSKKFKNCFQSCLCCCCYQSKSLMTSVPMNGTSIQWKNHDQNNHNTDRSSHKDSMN
The data set is described as follows: Endothelin binding inhibition, Binding Test #1: competition with 125I-ET-1 for ETA receptors on TE 671 cell membranes. Particulars: incubation at 24° C. (values marked †).

Molecules are shown by their SMILES.

For orientation: IC50 means the concentration at which inhibition is half-maximal. Read a high IC50 as weaker potency. As to `Cc1cc(C)c(NC(=O)c2sccc2S(=O)(=O)Nc2onc(C)c2Cl)c(C)c1O` [N-(4-chloro-3-methyl-5-isoxazolyl)-2-(3-hydroxy-2,4,6-trimethylphenylaminocarbonyl)thiophene-3-sulfonamide], in data set [1] (oral), the “POt½ in Rat” value was 7 h. In addition, the “Peak Plasma Levels” value in data set [1] (rat, in vivo) was 5.6 µg/mL. Besides, in the data set on hypertensive rat model, the “decrease of blood pressure” value is on record as “effective in decreasing blood pressure”. Moreover, at human ETA receptors, the IC50 was determined as 1.71 nM.

For the origin of these results see patent publication US6632829B2, “Sulfonamides and derivatives thereof that modulate the activity of endothelin” (Texas Biotechnology Corp., priority 1996, dated 2003).
